This passage reports EC50 results from patent publication US11912686B2 (Gilead Sciences, Inc., priority 2020, dated 2024).

By EC50 is commonly meant the concentration at which the effect is half-maximal.

The assay deals with human LPAR1 (Homo sapiens (Human), UniProt Q92633). Description: LPAR1 intracellular calcium mobilization assay (antagonist mode, FLIPR). The following applies: CHO-K1 EDG2 cells expressing human LPAR1, LPA 18:2 at EC80 (100 nM), test compound 0.5 nM to 10 μM. It is filed as cell-based. (Calcium flux is commonly read through the fluorescence of an indicator in the cells.)
Chain of human LPAR1 (Q92633 whole entry): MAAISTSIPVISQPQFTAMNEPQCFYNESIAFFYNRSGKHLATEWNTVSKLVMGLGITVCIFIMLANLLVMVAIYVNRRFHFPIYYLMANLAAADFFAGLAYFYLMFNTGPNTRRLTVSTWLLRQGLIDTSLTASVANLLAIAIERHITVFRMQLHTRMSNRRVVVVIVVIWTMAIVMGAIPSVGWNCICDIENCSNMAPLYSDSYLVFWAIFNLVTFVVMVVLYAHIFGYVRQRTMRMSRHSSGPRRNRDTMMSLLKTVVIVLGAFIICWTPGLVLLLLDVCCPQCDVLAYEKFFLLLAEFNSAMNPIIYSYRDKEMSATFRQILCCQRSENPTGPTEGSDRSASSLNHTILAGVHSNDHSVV
For the compound `C[C@@H](OC(=O)Nc1c(-c2ccc(NC(=O)C3(C)COC3)cn2)nnn1C)c1cccnc1Cl` [Compound 97, (R)-1-(2-chloropyridin-3-yl)ethyl (1-methyl-4-(5-(3-methyloxetane-3-carboxamido)pyridin-2-yl)-1H-1,2,3-triazol-5-yl)carbamate], the EC50 was 395 nM.

Regarding `C[C@@H](OC(=O)Nc1c(-c2ccc(NC(=O)c3cccc(C#N)n3)cn2)nnn1C)c1cccnc1Cl` [Compound 98, (R)-1-(2-chloropyridin-3-yl)ethyl (4-(5-(6-cyanopicolinamido)pyridin-2-yl)-1-methyl-1H-1,2,3-triazol-5-yl)carbamate], the EC50 worked out at 720 nM. As for `C[C@@H](OC(=O)Nc1c(-c2ccc(NC(=O)c3ccc(C#N)nc3)cn2)nnn1C)c1cccnc1Cl` [Compound 99, (R)-1-(2-chloropyridin-3-yl)ethyl (4-(5-(6-cyanonicotinamido)pyridin-2-yl)-1-methyl-1H-1,2,3-triazol-5-yl)carbamate], the EC50 was determined as 53.9 nM. Then `C[C@@H](OC(=O)Nc1c(-c2ccc(NC(=O)c3ccnc(C#N)c3)cn2)nnn1C)c1cccnc1Cl` [Compound 100, (R)-1-(2-chloropyridin-3-yl)ethyl (4-(5-(2-cyanoisonicotinamido)pyridin-2-yl)-1-methyl-1H-1,2,3-triazol-5-yl)carbamate], with 90.8 nM; and `Cc1cnccc1C(=O)Nc1ccc(-c2nnn(C)c2NC(=O)O[C@H](C)c2cccnc2Cl)nc1` [Compound 101, (R)-1-(2-chloropyridin-3-yl)ethyl (1-methyl-4-(5-(3-methylisonicotinamido)pyridin-2-yl)-1H-1,2,3-triazol-5-yl)carbamate], with 1040 nM; and `Cc1cc(C(=O)Nc2ccc(-c3nnn(C)c3NC(=O)O[C@H](C)c3cccnc3Cl)nc2)ccn1` [Compound 102, (R)-1-(2-chloropyridin-3-yl)ethyl (1-methyl-4-(5-(2-methylisonicotinamido)pyridin-2-yl)-1H-1,2,3-triazol-5-yl)carbamate], with 85.6 nM.

As for `C[C@@H](OC(=O)Nc1c(-c2ccc(NC(=O)c3ccnc(Cl)c3)cn2)nnn1C)c1cccnc1Cl` [Compound 103, (R)-1-(2-chloropyridin-3-yl)ethyl (4-(5-(2-chloroisonicotinamido)pyridin-2-yl)-1-methyl-1H-1,2,3-triazol-5-yl)carbamate], the EC50 worked out at 16.6 nM. Then `C[C@@H](OC(=O)Nc1c(-c2ccc(NC(=O)C34COC(C3)C4)cn2)nnn1C)c1cccnc1Cl` [Compound 104, (R)-1-(2-chloropyridin-3-yl)ethyl (4-(5-(2-oxabicyclo[2.1.1]hexane-4-carboxamido)pyridin-2-yl)-1-methyl-1H-1,2,3-triazol-5-yl)carbamate], with 560 nM. In the case of `C[C@@H](OC(=O)Nc1c(-c2ccc(NC(=O)C34CC(CO3)C4)cn2)nnn1C)c1cccnc1Cl` [Compound 105, (R)-1-(2-chloropyridin-3-yl)ethyl (4-(5-(2-oxabicyclo[2.1.1]hexane-1-carboxamido)pyridin-2-yl)-1-methyl-1H-1,2,3-triazol-5-yl)carbamate], the EC50 is 1580 nM. Then `C[C@@H](OC(=O)Nc1c(-c2ccc(NC(=O)c3c[nH]cn3)cn2)nnn1C)c1cccnc1Cl` [Compound 106, (R)-1-(2-chloropyridin-3-yl)ethyl (4-(5-(1H-imidazole-4-carboxamido)pyridin-2-yl)-1-methyl-1H-1,2,3-triazol-5-yl)carbamate], with 1760 nM; and `C[C@@H](OC(=O)Nc1c(-c2ccc(NC(=O)CC(F)F)cn2)nnn1C)c1cccnc1Cl` [Compound 107, (R)-1-(2-chloropyridin-3-yl)ethyl (4-(5-(3,3-difluoropropanamido)pyridin-2-yl)-1-methyl-1H-1,2,3-triazol-5-yl)carbamate], with 10000 nM.
